Measurements reported in paper PMC3529809 (Steroids, 2012).
“And” between values parts separate entries of the source, which are not always exact repeats. Equal values may be shown once. “Also recorded” adds a separate entry of the source.

Legend:
NRF1 (NRF-1) expression = experiment: QRT-PCR of NRF1 in ERβ-transfected HepG2 cells; type: cell-based, human; details: 10 nM E2 or 5 µM sterol, 24 h, Fig. 5B
[1] = test system: TFF1 (pS2), PGR (PR), CTSD (cathepsin D) transcription; experiment: QRT-PCR of endogenous ER-target genes in ERα-transfected HEK-293 cells; type: cell-based, human; details: 10 nM E2 or 5 µM sterol, 24 h, Fig. 5A
hERα [2] = target: T1, hERα (Homo sapiens, UniProt P03372); experiment: ERELUC transient transfection reporter assay, ERα in HEK-293 cells; type: cell-based; details: for ERα agonist activity in ERELUC assay: result in words
T1 sequence (P03372 whole entry): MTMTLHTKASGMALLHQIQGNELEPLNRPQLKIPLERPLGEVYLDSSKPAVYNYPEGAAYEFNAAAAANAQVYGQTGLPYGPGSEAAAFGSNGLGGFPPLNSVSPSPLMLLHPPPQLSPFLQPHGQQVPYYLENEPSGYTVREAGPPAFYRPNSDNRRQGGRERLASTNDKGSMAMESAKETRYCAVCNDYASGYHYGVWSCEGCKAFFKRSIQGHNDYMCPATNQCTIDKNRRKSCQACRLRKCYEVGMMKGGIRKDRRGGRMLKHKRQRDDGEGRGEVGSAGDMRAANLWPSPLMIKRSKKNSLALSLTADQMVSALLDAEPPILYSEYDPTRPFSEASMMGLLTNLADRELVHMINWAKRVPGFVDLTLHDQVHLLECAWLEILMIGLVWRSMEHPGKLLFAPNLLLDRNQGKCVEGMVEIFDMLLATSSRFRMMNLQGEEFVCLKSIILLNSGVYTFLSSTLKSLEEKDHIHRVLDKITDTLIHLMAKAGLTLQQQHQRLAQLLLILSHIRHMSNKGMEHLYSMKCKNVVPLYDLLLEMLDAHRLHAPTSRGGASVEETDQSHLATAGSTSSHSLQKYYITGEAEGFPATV

ERβ [3] = details: 50 µM, COS cells; cited from earlier work
human ERβ [4] = target: T2, human ERβ (Homo sapiens, UniProt Q92731); experiment: ERELUC transient transfection reporter assay, ERβ in HepG2 cells; type: cell-based; details: for ERELUC activity in ERβ-expressing HepG2 cells: 5 µM, 24 h, Fig. 1B, result in words
T2 sequence (Q92731 whole entry): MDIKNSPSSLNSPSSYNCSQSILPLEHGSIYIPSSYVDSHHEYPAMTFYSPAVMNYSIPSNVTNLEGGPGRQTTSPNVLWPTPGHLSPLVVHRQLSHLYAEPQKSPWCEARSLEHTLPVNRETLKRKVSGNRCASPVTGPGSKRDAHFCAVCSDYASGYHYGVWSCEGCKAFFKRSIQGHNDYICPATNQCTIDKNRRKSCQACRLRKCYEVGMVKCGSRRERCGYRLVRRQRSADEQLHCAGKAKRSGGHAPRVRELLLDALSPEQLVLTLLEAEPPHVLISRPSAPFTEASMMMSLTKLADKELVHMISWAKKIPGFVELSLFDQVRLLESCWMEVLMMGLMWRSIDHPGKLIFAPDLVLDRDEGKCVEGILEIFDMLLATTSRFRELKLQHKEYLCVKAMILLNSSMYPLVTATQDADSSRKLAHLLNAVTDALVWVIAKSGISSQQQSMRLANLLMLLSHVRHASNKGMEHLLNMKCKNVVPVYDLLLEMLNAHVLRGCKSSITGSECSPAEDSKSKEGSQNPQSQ

ERα [5] = details: 50 µM, COS cells; cited from earlier work
[6] = test system: ZR-75-1 breast cancer xenografts; details: twice daily s.c. injections of 0.3 mg, nude mice; cited from earlier work
ERβ [7] = details: expressed in COS-1 cells, cited from earlier work
[8] = test system: diethylnitrosamine-induced hepatic tumors; details: 0.6% in the diet, rats; cited from earlier work
[9] = test system: NMU and DMBA induced tumors of the mammary gland; details: oral, rats; cited from earlier work
human ERβ [10] = target: T2, human ERβ; experiment: [3H] E2 ligand binding competition; details: IC50 for ERβ, competition with 30 nM [3H] E2, Fig. 6B
[11] = test system: MCF-7 human breast cancer cells; experiment: Cell proliferation BrdU assay; type: cell-based; details: for MCF-7 cell proliferation: 48 h BrdU, 10 nM E2, 5 µM sterols, Fig. 7
[12] = test system: ERα+ MCF-7 and triple-negative MDA-MB-231 and Hs578T breast cancer cells; details: 100 µM; cited from earlier work
MCF-7 cells = details: cited from earlier work; for proliferation of MCF-7 cells: 1–10 µM concentrations; for MCF-7 cell growth: DHEA 0.5 µM, ADIOL 2 nM; for MCF-7 cell proliferation: less than E2
hERα [13] = target: T1, hERα; experiment: [3H] E2 ligand binding competition; details: for ERα binding / competition with E2: result in words
ERα [14] = details: 0.1 µM, HEK-293; cited from earlier work
ERβ [15] = details: 0.1 µM, HEK-293; cited from earlier work
hERα [16] = target: T1, hERα; type: cell-based; details: Supplemental Fig. 1

Compound	NRF-1 mRNA expression (NRF1 (NRF-1) expression)	CTSD (cathepsin D) expression [1]	PGR (PR) expression [1]	TFF1 (pS2) expression [1]	ERα agonist activity in ERELUC assay (hERα [2]; HEK-293)	ERELUC activity in ERβ-expressing HepG2 cells (human ERβ [4])	IC50 (human ERβ [10])	MCF-7 cell proliferation [11]	proliferation of MCF-7 cells (MCF-7 cells)	MCF-7 cell proliferation (MCF-7 cells)	other results
C[C@]12CC[C@@H]3c4ccc(O)cc4CC[C@H]3[C@@H]1CC[C@@H]2O [E2, 17β-estradiol, reference compound]	statistically significant increase; also recorded: low induction	increased	increased	increased							
C[C@]12CC[C@H](O)CC1=C[C@@H](O)[C@@H]1[C@@H]2CC[C@]2(C)C(=O)CC[C@@H]12 [7α-OH-DHEA, 7α-hydroxy-DHEA]	low induction	no induction	no induction	no induction	lack of ERα activity	increased					NRF-1 mRNA expression (NRF1 (NRF-1) expression; listed as α-OH-DHEA): statistically significant increase; ERE-TK-luciferase reporter activity, ERβ (ERβ [3]): stimulated activity; ERE-TK-luciferase reporter activity, ERα (ERα [5]): stimulated activity
C[C@]12CC[C@H](O)CC1=CC[C@@H]1[C@@H]2CC[C@]2(C)C(=O)[C@H](O)C[C@@H]12 [16α-OH-DHEA, 16α-hydroxy-DHEA]	statistically significant increase; also recorded: low induction	no activation	no activation	increased	lack of ERα-induced ERE-luciferase activity	increased					
C[C@]12CC[C@H](O)CC1=CC[C@@H]1[C@@H]2CC[C@]2(C)C(=O)CC[C@@H]12 [DHEA, 3β-hydroxy-androst-5-ene-17-one]	statistically significant increase; also recorded: low induction	increased	increased	increased		significantly induced	500 µM	increased	stimulated proliferation	increased cell proliferation	estrone-stimulated growth of xenografts [6]: suppressed; Kd (ERβ [7]; read-out: Kd for ERβ): ~0.5 µM; Ki (ERβ [7]; read-out: Ki for ERβ): ~0.5 µM; tumor cell growth [8]: inhibited tumor cell growth; effect in the mammary gland after chemical induction of tumors [9]: anti-carcinogenic effects; proliferation, cell cycle progression and migration [12]: inhibit; MCF-7 cell growth (MCF-7 cells): stimulated
C[C@]12CCC(=O)CC1=CC[C@@H]1[C@@H]2CC[C@]2(C)C(=O)CC[C@@H]12 [ADIONE, androst-5-ene-3,17-dione]	did not increase					significantly induced	50 µM and ~50 µM	increased			ERELUC activity in ERβ-expressing HepG2 cells (human ERβ [4]; listed as androst-5-ene-3,17-dione): effective in activating
C[C@]12CC[C@H](OS(=O)(=O)O)CC1=CC[C@@H]1[C@@H]2CC[C@]2(C)C(=O)CC[C@@H]12 [DHEA-S, DHEA 3β-sulfate]		increased	increased	increased				increased		increased cell proliferation	induction of ERELUC activity via ERα (hERα [2]; 5 µM, 24 h, HEK-293, Fig. 1B): around 9 fold; induction of ERELUC expression with ERα (hERα [2]; concentration-response, at higher concentrations, HEK-293, Fig. 2A): ~ 2 fold; IC50 (hERα [13]; read-out: IC50 for ERα, competition with 30 nM [3H] E2, Fig. 6A): 100 to 500 µM
C[C@]12CC[C@H](O)C[C@@H]1CC[C@@H]1[C@@H]2CC[C@]2(C)[C@@H](O)CC[C@@H]12 [3β-Adiol, 5α-androstane-3β,17β-adiol]	increased; also recorded: low induction								stimulated proliferation		ERE-luciferase activity, ERα (ERα [14]): activated; ERE-luciferase activity, ERβ (ERβ [15]): activated
C[C@]12CC[C@H](O)CC1=CC(=O)[C@@H]1[C@@H]2CC[C@]2(C)C(=O)CC[C@@H]12 [7-oxo-DHEA, 3β-hydroxyandrost-5-ene-7,17-dione]	low induction	no activation	no activation	increased	lack of ERα-induced ERE-luciferase activity	significantly induced	500 µM	increased			ERα binding / competition with E2 (hERα [13]): did not exhibit significant ERα binding
Clc1ccc(COC(Cn2ccnc2)c2ccc(Cl)cc2Cl)c(Cl)c1 (stereo not drawn) [miconazole, reference compound]											effect on E2-induced ERα-ERE-LUC activity (hERα [16]; 10 nM E2, miconazole pretreatment): inhibited; increase of basal ERE-luciferase reporter activity (hERα [16]; miconazole pretreatment): ~ 0.8 fold; effect on DHEA-stimulated ERα transcriptional activity (hERα [2]; 5 µM miconazole, HEK-293): did not inhibit; effect on ERα activation of ERELUC in response to E2 and ADIOL (hERα [2]; 5 µM miconazole, HEK-293, Fig. 4A): reduced; inhibition of [3H] E2 binding to recombinant human ERα (hERα [13]; 100 µM competitor, Supplemental Fig. 2): 15%; ERα binding / competition with E2 (hERα [13]): did not compete; effect on MCF-7 cell proliferation induced by E2, DHEA, ADIOL and ADIONE ([11]; 5 µM miconazole, 48 h): inhibited; effect on ERβ activation of ERELUC in response to E2, ADIOL, DHEA, ADIONE and 7-oxo-DHEA (human ERβ [4]; 5 µM miconazole, HepG2, Fig. 4B): reduced
C[C@]12CC[C@H]3[C@@H](CC=C4C[C@@H](O)CC[C@@]43C)[C@@H]1CC[C@@H]2O [ADIOL, androst-5-ene-3β,17β-diol]	statistically significant increase			increased		significantly induced		increased	stimulated proliferation	increased cell proliferation	ERE-luciferase activity, ERα (ERα [14]): activated; ERE-luciferase activity, ERβ (ERβ [15]): activated; MCF-7 cell growth (MCF-7 cells): stimulated
